Active and inactive are the calls of the source. No cut-off for these calls is given here.

Experiment [1] has as its system Mus musculus. The experiment can be described thus: Induction of hyperproliferative skin lesions assessed as epidermal hyperplasia in Nct+/- C57BL/6;129Svi mouse at 2.5 mg/kg/day. In kind it is functional, organism-based.
Experiment [2] deals with Mus musculus. The experiment can be described thus: Reduction of amyloid beta in Tg2576 mouse brain at 2.5 mg/kg/day. It counts as functional. Further details: scale not given: the % may be the effect or the level left.
In experiment [3] the test system is Mus musculus. Nature of the experiment: Reduction of amyloid beta in Tg2576 mouse plasma at 2.5 mg/kg/day. It counts as functional. Set-up: scale not given: the % may be the effect or the level left.
For experiment [4], the system named is Fibroblast. The experiment can be described thus: Inhibition of EGF induced Nct-/- C57BL/6;129Svi mouse fibroblast cell proliferation at 5 uM. In kind it is functional, cell-based.
The test system of experiment [5] is Fibroblast. The experiment can be described thus: Inhibition of EGF induced Nct+/+ C57BL/6129Svi mouse fibroblast cell proliferation at 5 uM. It counts as functional, cell-based. The following applies: C57BL/6.
Experiment [6] has as its system Fibroblast. The experiment can be described thus: Inhibition of Nct-/- C57BL/6;129Svi mouse fibroblast cell proliferation. It counts as functional, cell-based.

For `C[C@H](NC(=O)[C@@H](O)c1cc(F)cc(F)c1)C(=O)N[C@@H]1C(=O)N(C)c2ccccc2-c2ccccc21`, the outcome in experiment [1] was Active. In addition, the Activity in experiment [2] is over 70%; in experiment [3] it was over 90%.
For `COc1cc2ncnc(Nc3cccc(Cl)c3)c2cc1OC`, the outcome in experiment [4] and in experiment [6] was Active. The result in experiment [5] was inactive.

The values are drawn from ChEMBL document CHEMBL1156510, “Epidermal growth factor receptor and notch pathways participate in the tumor suppressor function of gamma-secretase” (2007).
